Measurements published in US10059742B2, “Peptides and methods and uses thereof for preventing retinal disorders” (priority 2012, dated 2018).
Ends that are not written are not given here.

Columns and labels:
[1] = test system: axotomized retinal ganglion cells (RGCs); assay: Optic nerve transection (axotomy): RGC survival at 14 days; format: in vivo, rat
Description: Optic nerve transection was performed as previously described (Koeberle and Ball 1998; Koeberle and Bahr 2008; Koeberle, Wang et al. 2010; Magharious, D'Onofrio et al. 2011; Magharious, D'Onofrio et al. 2011; Monnier, D'Onofrio et al. 2011). Animals were placed in a stereotaxic frame and anesthetized with Isoflurane (2%; 0.8 L/min oxygen flow rate) delivered through a gas anesthesia mask. Lidocaine eye drops were used to anesthetize the cornea and ophthalmic eye ointment was applied to the cornea to prevent desiccation during surgery. […] In order to allow access to the optic nerve and surrounding dura mater sheath, the eye was rotated laterally by applying traction to the extraocular muscles. The dural sheath surrounding the optic nerve was cut longitudinally, to avoid damaging blood vessels supplying the retina. The optic nerve was gently lifted from the meningeal sheath and transected within 2 mm of the back of the eye. In order to retrogradely label RGCs, gelfoam soaked in 2% Fluorogold (Sigma) was placed over the transected optic nerve stump. The orbital contents were returned to their original location and the initial incision was closed. The optic nerve crush procedure was performed using a similar approach; however, the optic nerve was crushed using fine self-closing forceps for 6 seconds as previously described (Magharious, D'Onofrio et al. 2011; Monnier, D'Onofrio et al. 2011). The orbital contents were then similarly returned to their original location and the initial incision was closed. Following surgery, rats were placed in a recovery cage under a heat lamp and given Ketoprofen to ease post-surgical recovery.
The procedures for intraocular and optic nerve injections have been previously described (Koeberle and Ball 1998; Koeberle and Bahr 2008; Koeberle, Wang et al. 2010; Magharious, D'Onofrio et al. 2011; Magharious, D'Onofrio et al. 2011; Monnier, D'Onofrio et al. 2011). Animals received intraocular injections of each peptide at 3 and 8 days postaxotomy, prior to the onset of RGC apoptosis which occurs at 4-5 days after axotomy. Animals were placed in a stereotaxic frame and anesthetized with isoflurane, delivered through a gas anesthetic mask. The cornea was anesthetized using Alcaine eye drops (Alcon) prior to intraocular injections. A pulled glass micropipette attached to a 10 μl Hamilton syringe via a hydraulic coupling through PEEK tubing was used to deliver 4 μl of a peptide solution (10 mg/ml) into the vitreous chamber of the eye, posterior to the limbus. Care was taken to prevent damage to the lens or anterior structures of the eye. The pipette was held in place for 5 seconds after injection and slowly withdrawn from the eye to prevent reflux. Injections were performed using a surgical microscope in order to visualize pipette entry into the vitreous chamber and confirm delivery of the injected solution.
To directly target RGCs, peptide solutions were injected into the transected optic nerve stump using a 10 microliter Hamilton syringe. A total of 5 microliters of peptide suspension (10 mg/ml) were injected. The majority of the injected fluid will reflux out of the optic nerve during this procedure, so the remaining pool of peptide suspension is left in place when returning the orbital contents to their original positions.
For intraperitoneal injections, 1 ml of saline containing 0.5 mg of dissolved peptide was delivered via a 25 gauge needle attached to a 5 ml syringe, following rapid anesthesia with isoflurane to incapacitate the animal.
For eye drop application of C-terminal peptides, animals were sedated with isoflurane and placed in a stereotaxic frame, in order to reduce the blink reflex. Twenty-five microliters of a peptide suspension (1 mg/ml) was delivered to the surface of the cornea using a micropipetter with a sterile micropipette tip. Eye drops were delivered once per day, on day 1, 2, 3, 4, 5, 6, and day 7 after axotomy. […]

[2] = test system: retinal ganglion cells (RGCs); assay: Retinal ischemia (ophthalmic artery ligation): RGC survival at 14 days; format: in vivo, rat; details: ophthalmic vessels ligated 45 minutes; intravenous 500 μg at 1 day and 8 days after injury; 14 days after stroke
Description: The approach for temporary retinal ischemia (ophthalmic artery ligation) was similar with a few exceptions. this procedure has been previously described (Tatton, Chalmers-Redman et al. 2001). Since the optic nerve was not damaged in this procedure, RGCs had to be retrogradely labeled prior to ischemia. […] Injections were performed under gas anesthetic in a stereotaxic apparatus. […] Injections were carried out using a 10 μl Hamilton syringe actuated by a computer controlled Picopump (World Precision Instruments). […] The needle was left in place for 10 min after each injection and slowly withdrawn to prevent reflux of the injected solutions up the needle tract. The surgical approach to the optic nerve was identical to that described for optic nerve transection. After a longitudinal cut was made in the meningeal sheath surrounding the optic nerve, the nerve was gently lifted out of the sheath. The meningeal sheath including the ophthalmic artery was then clamped using a calibrated micro-vessel clamp for 45 minutes, after which the clamp was removed to permit vascular reperfusion. […]
Eyes were enucleated, the cornea and lens were removed and the remaining eye cups containing the retinas were fixed in 4% paraformaldehyde at 14 days postaxotomy. […] RGC densities were grouped by retinal eccentricity (inner, middle, outer), and expressed as mean±SEM. […]

[3] = test system: cultured post-natal cortical neurons; assay: Cortical neuron survival after glutamate (crystal violet assay); format: cell-based, rat; details: 5 mM glutamate, 24 hours; increasing volumes of 10 mg/ml peptide stock; relative to control
Description: Cortical neuron cultures were made from newborn (P5) rat pups. Cortical samples were triturated 30× using a P1000 pipettor in cold Dubelcco's PBS+glucose. Neurons were plated in 24 well plates coated with poly-d-lysine. 100,000 cells/well were plated in cold Neurobasal A medium+glutamax+penicillin/streptomycin. Cultures were placed in an incubator (37 Celsius, 5% CO2) for 7 days, with half the media changed after 3 days.
After 7 days in culture, the media was replaced with fresh media containing 5 mM glutamate. Experimental samples received various amounts of each peptide, whereas controls received an equivalent volume of PBS (vehicle). After 24 hours, cell survival was quantified using the crystal violet assay: Media was removed from the cells and 200 microliters of 0.2% crystal violet (dissolved in 20% methanol:80% H2O) was added to each well. After 5 minutes, wells were rinsed with distilled water and the plates were dried. Crystal violet was eluted from the cells using 0.1 M sodium citrate in 50% ethanol. 100 microliter samples from each well were then transferred to 96 well plates and absorbance was read at 540 nm. Results were expressed as the relative fold-change in comparison to the control samples that received buffer.

[4] = test system: middle cerebral artery occlusion (MCAO) in adult rats; assay: Thromboembolic middle cerebral artery occlusion (MCAO): brain infarct volume (TTC staining); format: in vivo, rat; details: Arginine 9-mer-conjugated peptides; intravenous (tail-vein) 1 mg/kg; 48 hours after MCAO; relative to control
Description: (§1) In order to examine the effects of the peptide therapeutics described herein, a thromboembolic model of middle cerebral artery occlusion that closely mimics human ischemic brain stroke was used: a clotted segment of blood is injected into the origin of the middle cerebral artery to block blood flow in the corresponding vascular territory of the lateral cerebrum (Wang, Yang et al. 2001).
(§2) Following deep isoflurane anesthesia via a nose-cone, fur was shaved from the ventral aspect of the neck. The shaved skin was cleaned twice with alternating applications of Proviodine (iodine detergent solution) and 70% ethanol. Following a final application of Proviodine, the surgical field was draped and a midline incision made in the ventral skin and fascia of the neck. Under an operating microscope, the right common carotid artery (CCA), the right external carotid artery […], and the right internal carotid artery […] were carefully isolated and separated from the adjacent vagus nerve. A 6-0 silk suture was loosely tied at the origin of the ECA, and another suture was used to ligate the ECA distally. A sterile modified PE 10 catheter was introduced into the lumen of the right ECA via a small puncture. Ten microliters of blood was withdrawn into the catheter and retained for 15 minutes to allow formation of a clot. The fresh autologous pre-formed clot was used for MCA occlusion. The right CCA and the right ICA were temporarily clamped using microvascular clips. The PE 50 catheter containing a 20 mm long fibrin rich clot was attached to 100 μl Hamilton syringe and introduced into the lumen of the external carotid artery via a small incision. The suture around the origin of the external carotid artery was tightened around the intraluminal catheter to prevent bleeding, and the microvascular clip on the internal carotid artery was removed. The catheter was gently advanced from the ECA into the lumen of the ICA and upwards to the origin of the middle cerebral artery (a total of 17 mm in distance from the bifurcation of the CCA). At this point, the end of the catheter is 1-2 mm away from the origin of the middle cerebral artery. Over 10 seconds, the clot (3.5 μl volume) was gently injected together with 5 μl of sterile saline within the catheter. The catheter was removed 5 minutes after injection, and the right ECA was ligated at its origin. […]
(§3) 48 hours after MCA occlusion isoflurane anesthetized rats were euthanized by decapitation. […] Infarct volumes were calculated from scanned images of the coronal surfaces of brain slices, using the following formula: Infarct volume=(volume of uninjured hemisphere−(volume of injured hemisphere−measured infarct volume))/volume of uninjured hemisphere)×100. […]

[5] = test system: middle cerebral artery occlusion (MCAO) in adult rats; assay: MCAO: neurological deficits (modified Bederson scoring system); format: in vivo, rat; details: Arginine 9-mer-conjugated peptides; intravenous 1 mg/kg; scored 8, 24 and 48 hours after MCAO; relative to control
Description: as §1
as §2, with “origin. Body temperature was maintained at 37° C. with a heating pad for the duration of surgery, after which the surgical field was closed with 4-0 silk sutures. Subcutaneous injections of Buprenorphine (0.05 mg/kg) were administered to minimize post-surgical discomfort.” for “origin.”
Neurological deficits were recorded at 8, 24 and 48 hours after ischemic injury. Neurological deficits were determined using a modified Bederson scoring system. […]

[6] = test system: middle cerebral artery occlusion (MCAO) in adult rats; assay: MCAO: brain edema of the injured hemisphere; format: in vivo, rat; details: Arginine 9-mer-conjugated peptides; intravenous 1 mg/kg; 48 hours after MCAO; relative to control
Description: as §1
Following deep isoflurane anesthesia via a nose-cone, fur was shaved from the ventral aspect of the neck. The shaved skin was cleaned twice with alternating applications of Proviodine (iodine detergent solution) and 70% ethanol. Following a final application of Proviodine, the surgical field was draped and a midline incision made in the ventral skin and fascia of the neck. Under an operating microscope, the right common carotid artery (CCA), the right external carotid artery […], and the right internal carotid artery […] were carefully isolated and separated from the adjacent vagus nerve. […]
as §3

[7] = 14 days postaxotomy, TAT-conjugated peptide, intraocular injection 10 mg/ml at 3 and 8 days
[8] = Arginine 9-mer (R9)-conjugated peptides, eye drops (1 mg/ml, 25 microliters) once per day, days 1-7 after axotomy, 14 days after axotomy

| Substance | increase in RGC survival compared to controls [1, 7] [fold] | RGC density as share of the normal density of 2500 cells/mm^2 ([1]; 14 days postaxotomy, TAT-conjugated peptide, nerve injection 10 mg/ml) [%] | increase in RGC survival compared to controls ([1]; 14 days postaxotomy, TAT-conjugated peptide, single nerve injection 10 mg/ml at time of axotomy) [fold] | RGC survival after ischemic (stroke) injury [2] | cortical neuron survival [3] | RGC survival relative to control ([1]; 14 days postaxotomy, TAT-conjugated peptide, intraperitoneal (IP) injections, 500 μg per injection) | RGC survival relative to control ([1]; 14 days postaxotomy, TAT-conjugated peptide, nerve injection) | brain infarct volume [4] | neurological deficits (Bederson score) [5] | brain edema (swelling) [6] | RGC survival relative to control [1, 8] |
| --- | --- | --- | --- | --- | --- | --- | --- | --- | --- | --- | --- |
| TAT-Kv2.1: TAT domain conjugated to Kv2.1 voltage-gated potassium channel C-terminal peptide HGSTRDQSI (SEQ ID NO:2) (also: TAT conjugated, site not given here; listed as Homo sapiens) | 3 | ~80 | 5 | significantly enhanced RGC survival | dose-dependent survival-promoting effect | – | – | – | – | – | – |
| iNOS: R9-conjugated iNOS C-terminal peptide LEEPKGTRL (SEQ ID NO:8), MCAO tests (also: R9 conjugated, site not given here; listed as Homo sapiens) | 2 | – | – | – | – | little or no effect | little or no effect | significantly reduced | significantly reduced neurological deficits | significantly reduced brain edema | – |
| Kv2.1: R9-conjugated Kv2.1 C-terminal peptide HGSTRDQSI (SEQ ID NO:2) (also: R9 conjugated, site not given here; listed as Homo sapiens) | – | – | – | – | – | – | – | significantly reduced | significantly reduced neurological deficits | significantly reduced brain edema | significantly enhanced RGC survival |
| PTEN: R9 (RRRRRRRRR)-conjugated rat PTEN phosphatase C-terminal peptide DQHSQITKV (SEQ ID NO:1) (RRRRRRRRRDQHSQITKV) | – | – | – | – | – | – | – | significantly reduced | significantly reduced neurological deficits | – | significantly enhanced RGC survival |
| hPTEN: R9-conjugated human PTEN phosphatase C-terminal peptide DQHTQITKV (SEQ ID NO:9) | – | – | – | – | – | – | – | significantly reduced | significantly reduced neurological deficits | – | significantly enhanced RGC survival |
